Experimental data as given in patent US6299906A, “Process for making submicron particles” (Hoffmann-La Roche Inc., priority 1998, dated 2001).
Converted amounts (≈) assume the structure as drawn. Like-named read-outs stand apart in the source and are kept apart here. One block for each compound: values may come before it.

Experiments:
[1] = Solubility of drug substances in liquid carbon dioxide and dimethyl ether (HPLC or gravimetric); format: physicochemical
Protocol: A comparison of solubilities of a number of pharmaceutical drug substances was performed as follows:
Approximately 3-5 g of the drug product was slightly compressed in a uniaxial press to avoid the formation of a stable suspension. The so compressed powder was placed in a pressure chamber with a sapphire glass (30 ml volume). The temperature of the pressure chamber was controlled by water bath. Then the pressure in the chamber was increased using the corresponding gas and equilibrated for 1-3 hours. After equilibration a 1.0 ml sample was drawn under constant pressure and temperature conditions using a high pressure line with a defined volume. […] The sample container was afterwards rinsed with the same liquid to collect the residues of the substance in the sample container.

[2] = Particle size distribution of Saquinavir by laser diffraction, influence of the pressure in the first container (Example 3); format: physicochemical; conditions: DME, Aerosol OT, 40° C.
Text: (§1) The particle size distribution of very small particles of approximately 1 μm is difficult to determine accurately. Two commonly used methods are photon correlation spectroscopy (PCS) and laser diffraction. Photon correlation spectroscopy is commonly used for characterization of submicron suspensions and emulsions. Due to the principle of the measurement, movement of particles, particles larger than 3 to 5 μm cannot be seen with this method. With laser diffraction small particles, >0.1 μm, as well as larger particles, up to 2 mm, can be characterized in parallel. The diffraction of the light is thereby measured at small diffraction angles. For very small particles the method tends to overestimate the particle size due to transmission of light through the particles.
(§2) Formation of fractions of coarse particles was observed especially after clogging of the nozzle, e.g. expansion of a compound dissolved in a compressed gas without modifier. To be able to detect the presence of coarse particles, laser diffraction was chosen to characterize the whole suspension. With its wide dynamic range, laser diffraction allows the detection of particles up to 2 mm that cannot be seen by the PCS method. Since laser diffraction tends to overestimate the particle size (FIGS. 2, 3), all the particle sizes determined by laser diffraction can be considered as too large.
The autoclave was kept at a temperature of 40° C. with a water bath. Then the autoclave was filled with DME up to different pressures and equilibrated for 90 min.
The autoclave was connected to a second autoclave via a heated high pressure line, kept at 25° C., 5 bar. […] The pressure of the first autoclave was kept constant by pumping in additional gas.
The nozzle diameter was 0.1 mm. As commonly known a further decrease of particle size can be obtained by decrease of the nozzle diameter.

[3] = Text: as §1
To be able to detect the presence of coarse particles, laser diffraction was chosen to characterize the whole suspension. With its wide dynamic range, laser diffraction allows the detection of particles up to 2 mm that cannot be seen by the PCS method.
The autoclave was kept at a temperature of 40° C. with a water bath. Then the autoclave was filled with DME up to 200 bar and equilibrated for 90 min.
The autoclave was connected to a second autoclave via a heated high pressure line, kept at 25° C., at 5 bar. […] The pressure of the first autoclave was kept constant by pumping in additional gas.

[4] = Particle size distribution of Saquinavir by Photon Correlation Spectroscopy (FIG. 2); format: physicochemical; conditions: batch no. 1051/30, Angle 90
Text: as §1

[5] = Particle size distribution of THL by laser diffraction, influence of the spraying time (Example 2); format: physicochemical; conditions: for Dv 0.1 / Dv 0.5 / Dv 0.9: CO2 200 bar, 40° C., Brij 96
Text: as §1, §2
150 g of solid THL and 75 g Brij 96 in a container with two sinter plates was charged into an autoclave having a volume of 6 liter. The autoclave was kept at a temperature of 40° C. with a water bath. Then the autoclave was filled with CO2 up to a pressure of 200 bar and equilibrated for 90 min.
The autoclave was connected to a second autoclave via a heated high pressure line, kept at 40° C. […] The dissolved THL was sprayed into 1.25 liter of an aqueous solution of Brij 96 (0.06%=1 CMC) in this second autoclave. The pressure of the first autoclave was kept constant at 200 bar by pumping in additional gas.
After 90, 150, and 180 minutes of spraying, a sample for particle size distribution was drawn. After 180 min the whole amount of THL/Brij was removed from the first container (≈12% THL in the final suspension).

[6] = liquid co2, organic solvent or mixture, CO2, 45° C./200 bar, read-out: solubility (CO2)
[7] = organic solvent or mixture, dimethyl ether, 45° C./200 bar, read-out: solubility (DME)
[8] = pressure l00 bar (so in the source)
[9] = surfactant Brij 96, DME 200 bar, 40° C.

solubility [1, 6]: 3.5 mg/mL (≈ 13 mM)
solubility [1, 7]: 37 mg/mL (≈ 138 mM)
Compound: O=C(NCCN1CCOCC1)c1ccc(Cl)cc1 [Moclobemide]

solubility [1, 6]: < 1 mg/mL
solubility ([1]; organic solvent or mixture, dimethyl ether, 25° C./100 bar, read-out: solubility (DME)): > 100 mg/mL
Dv 0.1 ([2]; pressure 50 bar): 0.5 μm
Dv 0.5 ([2]; pressure 50 bar): 3.8 μm
Dv 0.9 ([2]; pressure 50 bar): 6.4 μm
Dv 0.1 ([2]; pressure 200 bar): 0.9 μm
Dv 0.5 ([2]; pressure 200 bar): 1.5 μm
Dv 0.9 ([2]; pressure 200 bar): 2.4 μm
Dv 0.1 ([2]; pressure 280 bar): 0.4 μm
Dv 0.5 ([2]; pressure 280 bar): 0.8 μm
Dv 0.9 ([2]; pressure 280 bar): 1.7 μm
Dv 0.1 [2, 8]: 1.0 μm
Dv 0.5 [2, 8]: 2.1 μm
Dv 0.9 [2, 8]: 4.5 μm
Dv 0.1 ([3]; surfactant Aerosol OT, DME): 0.9 μm
Dv 0.5 ([3]; surfactant Aerosol OT, DME): 1.5 μm
Dv 0.9 ([3]; surfactant Aerosol OT, DME): 2.4 μm
Dv 0.1 [3, 9]: 0.7 μm
Dv 0.5 [3, 9]: 1.4 μm
Dv 0.9 [3, 9]: 3.0 μm
Poly [4]: 0.031
ZAve [4]: 254.7
Compound: CC(C)(C)NC(=O)[C@@H]1C[C@@H]2CCCC[C@@H]2CN1C[C@@H](O)[C@H](Cc1ccccc1)NC(=O)[C@H](CC(N)=O)NC(=O)c1ccc2ccccc2n1 [Saquinavir]

Compound: CCCCCCCCCCC[C@@H](C[C@@H]1OC(=O)[C@H]1CCCCCC)OC(=O)[C@H](CC(C)C)NC=O [Orlistat, Tetrahydrolipstatin]
solubility ([1]; organic solvent or mixture, dimethyl ether, 20° C./4.5 bar, read-out: solubility (DME)): 178 mg/mL (≈ 359 mM)
solubility ([1]; organic solvent or mixture, liquid CO2, 30° C./100 bar, read-out: solubility (CO2)): 6 mg/mL (≈ 12.1 mM)
resulting particle size distribution ([5]; over the whole trial (up to 180 min spraying)): kept almost constant over the whole trial
Dv 0.1 ([5]; spraying time 90 min): 0.6 μm
Dv 0.5 ([5]; spraying time 90 min): 1.4 μm
Dv 0.9 ([5]; spraying time 90 min): 2.9 μm
Dv 0.1 ([5]; spraying time 150 min): 0.4 μm
Dv 0.5 ([5]; spraying time 150 min): 1.5 μm
Dv 0.9 ([5]; spraying time 150 min): 3.5 μm
Dv 0.1 ([5]; spraying time 180 min): 0.9 μm
Dv 0.5 ([5]; spraying time 180 min): 2.1 μm
Dv 0.9 ([5]; spraying time 180 min): 4.5 μm

solubility [1, 6]: 3 mg/mL (≈ 9.99 mM)
solubility [1, 7]: 60 mg/mL (≈ 200 mM)
Compound: CC1=C(/C=C/C(C)=C/C=C/C(C)=C\C(=O)O)C(C)(C)CCC1 [Isotretionin]

solubility [1, 6]: < 1 mg/mL
solubility [1, 7]: 90 mg/mL (≈ 163 mM)
Compound: COc1ccccc1Oc1c(NS(=O)(=O)c2ccc(C(C)(C)C)cc2)nc(-c2ncccn2)nc1OCCO [Bosentan]
